Test results taken from patent publication US20140038989A1, “TETRAHYDROPYRAZOLO [1,5-A] PYRIMIDINE AS ANTI-TUBERCULOSIS COMPOUNDS” (Glaxo Group Limited, priority 2011, published 2014).

Test system: Mycobacterium tuberculosis H37Rv
Experiment: Mycobacterium tuberculosis H37Rv Inhibition Assay (Whole Cell Assay)
Type: cell-based
Details: ATCC 25618 / H37Rv, H37Rv strain (ATCC25618), Middlebrook 7H9, six days at 37° C., resazurin fluorescence after 48 hours

## CCc1ccc([C@H]2C[C@@H](C(F)(F)F)n3ncc(C(=O)NCc4ccc(OC)c(OC)c4)c3N2)cc1 (relative stereo) [Example 47, Cis-N-(3,4-dimethoxybenzyl)-5-(4-ethylphenyl)-7-(trifluoromethyl)-4,5,6,7-tetrahydropyrazolo[1,5-a]pyrimidine-3-carboxamide]
  MIC: > 2 µM

## CCc1ccc([C@H]2C[C@@H](C(F)(F)F)n3ncc(C(=O)NCc4ccc(F)c(C)c4)c3N2)cc1 (relative stereo) [Example 63, Cis-5-(4-ethylphenyl)-N-(4-fluoro-3-methylbenzyl)-7-(trifluoromethyl)-4,5,6,7-tetrahydropyrazolo[1,5-a]pyrimidine-3-carboxamide]
  MIC: ≤ 1 µM
